Laboratory results from patent US20070122830A1, “Prohibitin-directed diagnostics and therapeutics for cancer and chemotherapeutic drug resistance” (Aurelium BioPharma Inc., priority 2005, published 2007).

Test system: prohibitin
Assay: Prohibitin silencing by siRNA in MDA cells, anti-prohibitin immunoblot
Format: cell-based, human
Conditions: for decrease in prohibitin expression: MDA cell lines
Method: Cell extracts from drug-resistant and drug-sensitive cell lines were prepared to determine the expression levels of potential therapeutic targets in drug-resistant cells. Briefly, cultured cells were rinsed 2 times with 15 ml of 1× phosphate buffered saline (“PBS”), and harvested by trypsinization. Cells were collected in a 15 ml tube by centrifugation at 1000 rpm for 5 min. The supernatant was discarded and cells were washed 3 times with 1×PBS. The cell pellet was transferred to an Eppendorf tube and […] of 1×PBS were added. Cells were centrifuged 5 min. at 3000 rpm in an Eppendorf Microfuge. The supernatant was removed and cells were then lysed in […] of lysis buffer (50 mM Tris, pH 7.5, 150 mM NaCl, 1% NP-40, 0.5% sodium deoxycholate), containing protease inhibitors ([…], […] benzamidine, 0.2 mM PMSF) and incubated 5 min. on ice. The cell lysates were then centrifuged at 14,000×g for 10 min. at 4° C. The protein concentration of the supernatants was determined by the DC Protein assay (BioRad, Hercules, Calif.). Samples were subsequently stored at −80° C. until ready for analysis.
Total cell lysates were thawed and then incubated with 1 U/ml DNAse I (New England BioLabs, Inc., Beverly, Mass.), 5 mM MgCl2 (final concentration) for 2 hours on ice. Their protein concentration was determined using the RC DC protein assay kit from BIORAD according to manufacturer's instructions (BioRad Laboratories, Hercules, Calif.) (see also Lowry et al., (1951) J. Biol. Chem. 193: 265-275). Equivalent amounts of proteins ([…]) from total cell extracts from sensitive (MCF7, MDA-MB-231) and chemotherapeutic drug-resistant cells (MCF7/AR and MDA-MB-231/AR) were analyzed by polyacrylamide gel electrophoresis followed by blotting to a nitrocellulose membrane. The membrane was subsequently contacted with an anti-prohibitin antibody obtained from Abcam, Inc., Cambridge, Mass. The immunoblots were incubated with an anti-IgG secondary antibody and visualized using horseradish peroxidase using the manufacturer's protocol (Bio-Rad Laboratories, Hercules, Calif.).
To establish the importance of prohibitin to the expression of the drug-resistant phenotype in MDA cell lines, prohibitin expression was silenced using RNAi. Briefly, the following siRNA duplexes targeting the human prohibitin mRNA were designed and purchased either from Ambion (Austin, Tex.) or Invitrogen (Carlsbad, Calif.). […]
The siRNA duplex was predesigned, synthesized with 3′TT overhangs, purified and annealed by Ambion (Austin, Tex.). […] Transfection efficiencies were typically evaluated 24-48 hrs post transfection using a fluorescence microscope. […]

For “prohibitin siRNA: siRNA duplex to human prohibitin mRNA nt 425-443; sense 5′-GGAAGUGGUCUGUCUGUUAtt-3′, antisense 5′-UAACAGACAGACCACUUCCtt-3′ (sense GGAAGUGGUCUGUCUGUUATT; antisense UAACAGACAGACCACUUCCTT; chemistry not given here)”, the “decrease in prohibitin expression” value (four days post-treatment, FIG. 2) was 43%, the “decrease in prohibitin expression” value (fourth day after treatment, FIG. 3) was 58% and the “decrease in prohibitin expression” value (two days post-treatment, FIG. 2) was 79%. For the same substance, the “additional decrease in prohibitin expression compared to mock silencing” value (MDA cells, FIG. 5) was 60%.
